Measurements published in patent US4370459A, “Polymerizing unsaturated monomers with gem-diperoxyester catalyst” (priority 1980, dated 1983).

Key:
[1] = Half-lives of gem-diperoxyesters (10 hour half-life temperature); format: physicochemical; conditions: 0.2M in benzene
Text: HALF-LIFES OF VARIOUS GEM-DIPEROXYESTERS

[2] = Suspension polymerization of vinyl chloride monomer in pop bottles with gem-diperoxyester initiators
Experimental: A series of polymerizations was performed to illustrate the improved efficiencies of the new compounds as initiators of vinyl chloride monomer. 2,2-Bis(2-ethyl hexanoylperoxy)butane (KP-A) is one compound that can be made by the procedures of the above referenced Japanese patents and was included as typical of the prior art.
The data in Table III were obtained in the following manner:
The suspension polymerizations were performed in pop bottles using uninhibited monomer. Duplicate bottles were analyzed at each polymerization time interval. The following table lists some general information about the polymerization procedure used.
After the desired amounts of reactants were added to the pop bottles, they were capped, the contents almost melted, and the bottles placed in a rotating constant temperature bath at the temperatures and for the times shown in Table III. The bottles were frozen before venting-off excess monomer. The polymer was filtered, washed, and dried. All initiator concentrations shown have been corrected for purity.

[3] = Hot block gel tests with polyester resin (curing); conditions: 0.75 % Wt used
Experimental: The unsaturated polyester resins cured by the present process comprises those polyesters described in U.S. Pat. No. 4,129,613, the disclosure thereof being incorporated by reference herein. The following Table IV is typical of the improved results obtained with the present compounds.
HOT BLOCK GEL TESTS WITH POLYESTER RESIN
USING VARIOUS GEM-DIPEROXYESTERS
Resin: USS Chemical MR-941 (Isophthalic)
Block Temp.: 180 ± 1° F. (82° C.)
Peroxide Concentration Corrected for Purity, […]

[4] = SET 1, 7 hrs. at 22° C., 0.10 % Wt. used
[5] = SET 2, 7 hrs. at 40° C., 4.01 × 10^-4 moles initiator/100g VCM
[6] = SET 3, 6 hrs. at 50° C., 2.50 × 10^-4 moles initiator/100g VCM
[7] = SET 1, block temp. 180 ± 1° F. (82° C.)
[8] = SET 2, block temp. 180 ± 1° F. (82° C.)
[9] = SET 1, 7 hrs. at 22° C., 0.20 % Wt. used
[10] = SET 4, 5.5 hrs. at 55° C., 1.25 × 10^-4 moles initiator/100g VCM
[11] = SET 4, 5.5 hrs. at 55° C., 1.75 × 10^-4 moles initiator/100g VCM
[12] = SET 5, 5 hrs. at 60° C., 1.25 × 10^-4 moles initiator/100g VCM
[13] = SET 5, 5 hrs. at 60° C., 1.75 × 10^-4 moles initiator/100g VCM
[14] = SET 3, 6 hrs. at 50° C., 1.50 × 10^-4 moles initiator/100g VCM

With “3,3-bis(neodecanoylperoxy)pentane [KP-C]” the “10 Hour Half-Life Temperature” value [1] was 23.3 °C, the “% Conversion” value [2, 4] was 27.8% and the “% Conversion” value [2, 5] was 63.1%. The “% Conversion” value [2, 6] was 38.0% and the “Peak Temp (exotherm)” value [3, 7] was 225 °F.
For CC(C)(C)C1CCC(OC(=O)OOC(=O)OC2CCC(C(C)(C)C)CC2)CC1 (centres unmarked) [DBCPD, Di4-t-butyl cyclohexylperoxydicarbonate, reference compound], the “Peak Temp (exotherm)” value [3, 7] was 244 °F and the “Peak Temp (exotherm)” value [3, 8] was 260 °F.
With CCCCC(CC)C(=O)OOC(C)(CC)OOC(=O)C(CC)CCCC (centres unmarked) [KP-A, 2,2-Bis(2-Ethyl Hexanoylperoxy)Butane, reference compound] the “10 Hour Half-Life Temperature” value [1] was 43.7 °C, the “% Conversion” value [2, 9] was 5.0% and the “% Conversion” value [2, 5] was 45.9%. For the same compound, the “% Conversion” value [2, 6] was 75.85%, the “% Conversion” value [2, 10] was 53.4% and the “% Conversion” value [2, 11] was 72.1%. The “% Conversion” value [2, 12] was 67.8%, the “% Conversion” value [2, 13] was 83.2% and the “Peak Temp (exotherm)” value [3, 8] was 275 °F.
For CCC(CC)(OOC(=O)C(C)(C)C)OOC(=O)C(C)(C)C [KP-B, 3,3-bis(pivaloylperoxy)pentane], the “10 Hour Half-Life Temperature” value [1] was 24 °C, the “% Conversion” value [2, 4] was 52.2% and the “% Conversion” value [2, 5] was 90.4%. For the same compound, the “% Conversion” value [2, 6] was 51.8% and the “Peak Temp (exotherm)” value [3, 7] was 221 °F.
In the case of CCCCC(CC)C(=O)OOC(CC)(CC)OOC(=O)C(CC)CCCC (centres unmarked) [KP-D, 3,3-bis(2-ethylhexanoylperoxy)pentane], the “10 Hour Half-Life Temperature” value [1] is reported as 39.7 °C, the “% Conversion” value [2, 9] is reported as 10.7% and the “% Conversion” value [2, 5] is reported as 75.4%. For the same compound, the “% Conversion” value [2, 14] was 79.1%, the “% Conversion” value [2, 6] was 89.1% and the “% Conversion” value [2, 10] was 69.6%. The “% Conversion” value [2, 11] was 84.2%, the “% Conversion” value [2, 12] was 70.5% and the “% Conversion” value [2, 13] was 83.8%. For the same compound, the “Peak Temp (exotherm)” value [3, 7] was 249 °F and the “Peak Temp (exotherm)” value [3, 8] was 260 °F.
In the case of CCC(CC)(OOC(=O)C(C)C)OOC(=O)C(C)C [KP-E, 3,3-bis(2-methylpropionylperoxy)pentane], the “% Conversion” value [2, 9] is reported as 0.5%, the “% Conversion” value [2, 5] is reported as 39.6% and the “% Conversion” value [2, 6] is reported as 74.4%. For the same compound, the “% Conversion” value [2, 11] was 76.1%, the “% Conversion” value [2, 12] was 71.5% and the “% Conversion” value [2, 13] was 86.7%.
For CCC(CC)C(=O)OOC(CC)(CC)OOC(=O)C(CC)CC [KP-F, 3,3-Bis(2-Ethyl Butanoylperoxy)Pentane], the “10 Hour Half-Life Temperature” value [1] was 40 °C, the “% Conversion” value [2, 9] was 4.3% and the “% Conversion” value [2, 5] was 88.3%. The “% Conversion” value [2, 14] was 82.5%, the “% Conversion” value [2, 6] was 92.5% and the “% Conversion” value [2, 10] was 74.1%. For the same compound, the “% Conversion” value [2, 11] was 85.9%, the “% Conversion” value [2, 12] was 67.8% and the “% Conversion” value [2, 13] was 81.8%. The “Peak Temp (exotherm)” value [3, 8] was 271 °F.
With CCCC(C)C(=O)OOC(CC)(CC)OOC(=O)C(C)CCC (centres unmarked) [KP-G, 3,3-bis(2-methylpentanoylperoxy)pentane] the “% Conversion” value [2, 9] was 1.6%, the “% Conversion” value [2, 5] was 67.3% and the “% Conversion” value [2, 6] was 88.5%. The “% Conversion” value [2, 10] was 72.8%, the “% Conversion” value [2, 11] was 86.2% and the “% Conversion” value [2, 12] was 72.6%. For the same compound, the “% Conversion” value [2, 13] was 85.9%.
In the case of CCCCC(CC)C(=O)OOC(C)(CC(C)(C)O)OOC(=O)C(CC)CCCC (centres unmarked) [KP-H, 2,2-bis(2-ethylhexanoylperoxy)-4-hydroxy-4-methylpentane], the “% Conversion” value [2, 11] is reported as 63.9% and the “% Conversion” value [2, 13] is reported as 58.1%.
For CCC(CC)C(=O)OOC(C)(CC(C)(C)O)OOC(=O)C(CC)CC [KP-I, 2,2-bis(2-ethylbutanoylperoxy)-4-hydroxy-4-methylpentane], the “% Conversion” value [2, 11] was 66.1% and the “% Conversion” value [2, 13] was 65.4%.
